# Experiments:
# Type in all cases: biochemical
# Irak4 = target: T1, Irak4 (Homo sapiens, UniProt Q9NWZ3); assay: Z'-Lyte FRET kinase assay (Invitrogen), Irak4; details: read-out: IC50, activity toward kinase Irak4
# T1 construct: purchased Invitrogen (assay run by Invitrogen)
# T1 sequence (Q9NWZ3 1-460): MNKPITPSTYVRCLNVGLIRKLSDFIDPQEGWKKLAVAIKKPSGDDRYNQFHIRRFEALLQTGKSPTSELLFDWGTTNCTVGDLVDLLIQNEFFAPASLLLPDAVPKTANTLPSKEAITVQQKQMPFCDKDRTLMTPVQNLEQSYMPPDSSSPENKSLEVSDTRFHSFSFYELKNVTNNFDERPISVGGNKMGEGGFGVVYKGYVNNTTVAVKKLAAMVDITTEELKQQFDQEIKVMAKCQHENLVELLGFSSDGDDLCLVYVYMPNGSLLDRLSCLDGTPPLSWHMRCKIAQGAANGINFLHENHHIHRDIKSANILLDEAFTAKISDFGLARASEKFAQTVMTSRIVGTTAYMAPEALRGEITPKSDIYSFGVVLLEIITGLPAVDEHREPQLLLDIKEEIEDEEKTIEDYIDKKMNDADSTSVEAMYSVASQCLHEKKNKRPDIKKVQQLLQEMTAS
# Source text: (§1) The effect of potential modulators of kinase activity can be measured in a variety of different assays known in the art. For example, direct radiometric, indirect FRET or AlphaScreen assays may be used to assess the level of phosphorylation of a substrate in the presence of test compounds in order to determine the inhibitory affect of the compound on the kinase. Invitrogen (Carlsbad, Calif.) uses a FRET based assay for Btk, EGFR, EphB2, Flt3, lrak4, Kdr, MAP2K1, MAPKAPK2, PDGFRB, PKC theta, Stk6 and Yes. For these assays, compounds of the invention were screened by Invitrogen using Z′-Lyte™ kinase assay.
# Briefly, the Invitrogen kinase assay involves use of a specific peptide substrate optimized for each kinase, containing a fluorophore at each end that make up the FRET pair. The peptide sensitivity to proteolytic cleavage depends on phosphorylation of the peptide. Non-phosphorylated peptide is cleaved by a protease while peptide phosphorylated by the kinase is not cleaved. Cleavage of the peptide disrupts the FRET between the donor (coumarin) and acceptor (fluorescein) fluorophores, resulting in an increase in the ratio of donor emission to acceptor emission. The emission ratio of coumarin to fluorescein is used to assess the reaction progress. The extent of phosphorylation is determined from the emission ratio, which is low when the kinase is active (phosphorylated peptide is not cleaved, FRET pair connected) or higher for inhibited kinase (non-phosphorylated peptide is cleaved, FRET pair separated). Thus, the assay involves a kinase reaction in the presence of varying concentrations of a given compound, a development reaction with site specific protease, and detection of the fluorescent emission ratio of coumarin and fluorscein. […] Reaction conditions for each kinase are determined to provide optimal reaction times, incubation temperature, kinase and ATP concentrations. Test samples are made up in 1× kinase buffer (50 mM HEPES pH 7.5, 50 mM MgCl2, 5 mM EGTA, 0.05% BRIJ-35) and compound at desired concentration prepared in DMSO such that the final DMSO is 1%. […] Typically, assay plates are prepared to 10 μl final volume per sample, adding 2.5 μl of compound at 4× the desired concentration in 4% DMSO (serial dilution of compound provides concentration curve), 5 μl of the desired kinase mixed with Z′-LYTE™ peptide substrate (2× in 2× kinase buffer, final peptide at 2 μM), and 2.5 μl of 4×ATP solution. All kinase except for MAP2K1 were at 10 μM ATP in the kinase reaction, while MAP2K1 was at 100 μM. Samples are mixed and the kinase reaction is incubated 1 hour at room temperature, after which 5 μl of development solution is added and mixed. After incubation for another 1 hour at room temperature, 5 μl of stop reagent is added to each sample and mixed. The fluorescence signals are measured to determine the emission ratio.
# TrkA = TrkA (Homo sapiens, UniProt P04629); assay: AlphaScreen kinase assay, TrkA; details: read-out: IC50, activity toward kinase TrkA
# Sequence of TrkA (P04629 33-796): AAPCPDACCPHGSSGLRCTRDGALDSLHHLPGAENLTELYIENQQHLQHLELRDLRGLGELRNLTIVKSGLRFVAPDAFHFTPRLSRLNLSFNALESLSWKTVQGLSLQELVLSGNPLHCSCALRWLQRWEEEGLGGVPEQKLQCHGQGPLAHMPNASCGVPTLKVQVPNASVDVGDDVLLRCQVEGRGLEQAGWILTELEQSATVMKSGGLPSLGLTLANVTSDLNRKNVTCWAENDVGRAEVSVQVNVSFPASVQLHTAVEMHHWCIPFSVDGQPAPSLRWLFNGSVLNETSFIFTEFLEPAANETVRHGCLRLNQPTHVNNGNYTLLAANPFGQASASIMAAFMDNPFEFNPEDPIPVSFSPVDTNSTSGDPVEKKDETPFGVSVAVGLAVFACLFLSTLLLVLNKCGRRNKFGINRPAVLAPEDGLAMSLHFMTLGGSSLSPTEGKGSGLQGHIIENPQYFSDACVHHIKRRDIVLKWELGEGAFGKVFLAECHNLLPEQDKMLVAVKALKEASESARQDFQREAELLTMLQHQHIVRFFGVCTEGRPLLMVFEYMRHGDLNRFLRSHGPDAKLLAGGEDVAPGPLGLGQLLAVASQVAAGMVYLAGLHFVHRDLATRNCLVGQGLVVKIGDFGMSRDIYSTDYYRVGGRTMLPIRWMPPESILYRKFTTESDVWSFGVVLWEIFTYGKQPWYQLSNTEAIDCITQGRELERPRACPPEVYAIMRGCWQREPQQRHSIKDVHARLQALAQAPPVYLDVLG
# Source text: (§2) AlphaScreen assay was used to screen additional kinases. The assay is similarly dependent on the phosphorylation of a peptide substrate. In this assay, an antibody that recognizes phosphorylated substrate is bound to an acceptor bead. The peptide substrate is attached to biotin, which binds to a donor head that contains streptavidin. Thus phosphorylated substrate is bound by antibody and streptavidin, bringing the donor and acceptor heads into close proximity when kinase is not inhibited. The donor produces singlet oxygen which results in emission from the acceptor when they are in close proximity. Conversely, when kinase is inhibited, the donor and acceptor beads are not associated and the emission from the acceptor is reduced.
# (§3) AlphaScreen assays were done using compounds dissolved in DMSO to a concentration of 20 mM. The compounds were diluted accordingly to the desired final concentrations in each sample well, using 1:3 serial dilution for a total of 8 concentration points.
# EphB4 = EphB4 (Homo sapiens, UniProt P54760); assay: AlphaScreen kinase assay, EphB4; details: read-out: IC50, activity toward kinase EphB4
# Sequence of EphB4 (P54760 16-987): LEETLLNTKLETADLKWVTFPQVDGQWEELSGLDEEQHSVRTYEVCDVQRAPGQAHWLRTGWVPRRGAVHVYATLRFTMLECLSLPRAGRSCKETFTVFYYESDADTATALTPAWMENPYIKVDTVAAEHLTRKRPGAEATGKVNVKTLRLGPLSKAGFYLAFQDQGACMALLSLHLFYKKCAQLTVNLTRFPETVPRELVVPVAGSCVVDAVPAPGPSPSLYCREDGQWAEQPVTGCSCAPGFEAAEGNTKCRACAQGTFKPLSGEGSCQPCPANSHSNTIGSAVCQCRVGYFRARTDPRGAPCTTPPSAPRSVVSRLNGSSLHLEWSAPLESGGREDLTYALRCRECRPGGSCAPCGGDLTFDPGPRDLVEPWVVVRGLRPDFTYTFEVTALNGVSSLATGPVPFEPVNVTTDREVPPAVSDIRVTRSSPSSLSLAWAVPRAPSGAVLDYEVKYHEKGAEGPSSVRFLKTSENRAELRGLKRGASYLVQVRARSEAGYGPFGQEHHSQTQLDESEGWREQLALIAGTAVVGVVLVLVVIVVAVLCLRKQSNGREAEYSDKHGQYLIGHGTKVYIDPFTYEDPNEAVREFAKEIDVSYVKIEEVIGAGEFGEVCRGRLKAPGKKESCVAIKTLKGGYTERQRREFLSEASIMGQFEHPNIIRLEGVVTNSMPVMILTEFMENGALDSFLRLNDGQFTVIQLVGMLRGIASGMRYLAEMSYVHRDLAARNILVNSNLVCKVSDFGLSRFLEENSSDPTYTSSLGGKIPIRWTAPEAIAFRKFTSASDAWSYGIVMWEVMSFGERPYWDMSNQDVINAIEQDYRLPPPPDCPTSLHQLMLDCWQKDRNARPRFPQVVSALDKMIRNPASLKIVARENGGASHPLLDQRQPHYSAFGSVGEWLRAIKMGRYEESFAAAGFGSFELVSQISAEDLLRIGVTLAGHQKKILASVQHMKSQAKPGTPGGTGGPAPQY
# Source text: as §2, §3
# PDGFRB = target: T2, PDGFRB (Homo sapiens, UniProt P09619); assay: Z'-Lyte FRET kinase assay (Invitrogen), PDGFRB; details: read-out: IC50, activity toward kinase PDGFRB
# T2 construct: purchased Invitrogen (Carlsbad, Calif.), screening service
# T2 sequence (P09619 33-1106): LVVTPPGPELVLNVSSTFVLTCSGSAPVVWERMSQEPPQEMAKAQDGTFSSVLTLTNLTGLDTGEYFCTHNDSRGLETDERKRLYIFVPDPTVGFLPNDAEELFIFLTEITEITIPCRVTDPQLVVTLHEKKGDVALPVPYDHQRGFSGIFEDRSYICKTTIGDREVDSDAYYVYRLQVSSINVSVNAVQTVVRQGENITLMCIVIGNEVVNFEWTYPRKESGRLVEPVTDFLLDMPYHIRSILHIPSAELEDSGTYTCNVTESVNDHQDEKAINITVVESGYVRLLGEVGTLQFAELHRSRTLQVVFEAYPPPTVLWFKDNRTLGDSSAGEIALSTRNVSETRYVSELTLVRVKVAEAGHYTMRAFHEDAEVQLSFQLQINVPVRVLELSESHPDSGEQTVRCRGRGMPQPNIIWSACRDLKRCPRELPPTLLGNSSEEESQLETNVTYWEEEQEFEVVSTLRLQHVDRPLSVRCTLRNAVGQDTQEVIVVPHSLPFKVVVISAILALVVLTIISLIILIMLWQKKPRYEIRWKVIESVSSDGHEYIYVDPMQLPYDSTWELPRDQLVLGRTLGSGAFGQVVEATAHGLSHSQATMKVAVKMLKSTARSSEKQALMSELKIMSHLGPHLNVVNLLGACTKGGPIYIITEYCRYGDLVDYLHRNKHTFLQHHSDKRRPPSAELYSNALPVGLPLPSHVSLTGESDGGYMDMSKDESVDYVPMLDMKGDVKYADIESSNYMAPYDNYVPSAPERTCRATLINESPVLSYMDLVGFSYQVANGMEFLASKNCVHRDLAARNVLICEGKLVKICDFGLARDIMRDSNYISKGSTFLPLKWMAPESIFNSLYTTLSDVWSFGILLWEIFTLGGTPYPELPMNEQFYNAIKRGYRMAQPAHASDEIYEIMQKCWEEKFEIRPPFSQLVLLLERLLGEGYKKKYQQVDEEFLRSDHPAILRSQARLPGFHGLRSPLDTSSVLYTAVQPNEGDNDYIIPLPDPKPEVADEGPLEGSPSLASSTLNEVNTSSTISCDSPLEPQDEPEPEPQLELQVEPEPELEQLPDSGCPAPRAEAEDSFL
# Source text: as §1
# Briefly, the Invitrogen kinase assay involves use of a specific peptide substrate optimized for each kinase, containing a fluorophore at each end that make up the FRET pair. The peptide sensitivity to proteolytic cleavage depends on phosphorylation of the peptide. […] The extent of phosphorylation is determined from the emission ratio, which is low when the kinase is active (phosphorylated peptide is not cleaved, FRET pair connected) or higher for inhibited kinase (non-phosphorylated peptide is cleaved, FRET pair separated). […] Reaction conditions for each kinase are determined to provide optimal reaction times, incubation temperature, kinase and ATP concentrations. […] The fluorescence signals are measured to determine the emission ratio.
# p38 = target: T3, p38 (Homo sapiens, UniProt Q16539); assay: AlphaScreen kinase assay, p38; details: read-out: IC50, activity toward kinase p38
# T3 construct: P4292.pET15S P38A M1-S360-X MKK6DD; His6 with thrombin site (N); made in house
# T3 sequence (Q16539 with tags, fused parts or gaps): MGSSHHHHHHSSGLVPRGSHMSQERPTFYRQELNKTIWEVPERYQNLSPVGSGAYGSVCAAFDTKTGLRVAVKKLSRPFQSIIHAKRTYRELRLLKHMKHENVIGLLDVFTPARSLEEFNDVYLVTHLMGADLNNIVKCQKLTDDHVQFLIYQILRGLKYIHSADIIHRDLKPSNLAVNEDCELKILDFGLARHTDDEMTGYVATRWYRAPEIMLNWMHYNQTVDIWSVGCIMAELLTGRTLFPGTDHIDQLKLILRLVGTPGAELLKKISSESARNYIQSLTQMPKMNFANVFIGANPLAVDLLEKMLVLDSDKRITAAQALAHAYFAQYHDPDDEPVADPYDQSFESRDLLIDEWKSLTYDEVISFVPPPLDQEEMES
# Procedure: AlphaScreen assays were done using compounds dissolved in DMSO to a concentration of 20 mM. The compounds were diluted accordingly to the desired final concentrations in each sample well, using 1:3 serial dilution for a total of 8 concentration points. Plates were prepared such that each kinase reaction is 20 μl in 1× kinase buffer, 5% DMSO and 10 μM ATP. After incubation of the kinase reaction for 1 hour at room temperature, 5 μl of donor beads in stop buffer (50 mM EDTA in 1× kinase buffer) was added, the sample was mixed and incubated for 20 minutes at room temperature before adding 5 μl of acceptor beads in stop buffer. The samples were incubated for 60 minutes at room temperature and the signal per well was read on AlphaQuest reader.
# MLK1 = MLK1 (Homo sapiens, UniProt P80192); assay: AlphaScreen kinase assay, MLK1; details: read-out: IC50, activity toward kinase MLK1
# Sequence of MLK1 (P80192 whole entry): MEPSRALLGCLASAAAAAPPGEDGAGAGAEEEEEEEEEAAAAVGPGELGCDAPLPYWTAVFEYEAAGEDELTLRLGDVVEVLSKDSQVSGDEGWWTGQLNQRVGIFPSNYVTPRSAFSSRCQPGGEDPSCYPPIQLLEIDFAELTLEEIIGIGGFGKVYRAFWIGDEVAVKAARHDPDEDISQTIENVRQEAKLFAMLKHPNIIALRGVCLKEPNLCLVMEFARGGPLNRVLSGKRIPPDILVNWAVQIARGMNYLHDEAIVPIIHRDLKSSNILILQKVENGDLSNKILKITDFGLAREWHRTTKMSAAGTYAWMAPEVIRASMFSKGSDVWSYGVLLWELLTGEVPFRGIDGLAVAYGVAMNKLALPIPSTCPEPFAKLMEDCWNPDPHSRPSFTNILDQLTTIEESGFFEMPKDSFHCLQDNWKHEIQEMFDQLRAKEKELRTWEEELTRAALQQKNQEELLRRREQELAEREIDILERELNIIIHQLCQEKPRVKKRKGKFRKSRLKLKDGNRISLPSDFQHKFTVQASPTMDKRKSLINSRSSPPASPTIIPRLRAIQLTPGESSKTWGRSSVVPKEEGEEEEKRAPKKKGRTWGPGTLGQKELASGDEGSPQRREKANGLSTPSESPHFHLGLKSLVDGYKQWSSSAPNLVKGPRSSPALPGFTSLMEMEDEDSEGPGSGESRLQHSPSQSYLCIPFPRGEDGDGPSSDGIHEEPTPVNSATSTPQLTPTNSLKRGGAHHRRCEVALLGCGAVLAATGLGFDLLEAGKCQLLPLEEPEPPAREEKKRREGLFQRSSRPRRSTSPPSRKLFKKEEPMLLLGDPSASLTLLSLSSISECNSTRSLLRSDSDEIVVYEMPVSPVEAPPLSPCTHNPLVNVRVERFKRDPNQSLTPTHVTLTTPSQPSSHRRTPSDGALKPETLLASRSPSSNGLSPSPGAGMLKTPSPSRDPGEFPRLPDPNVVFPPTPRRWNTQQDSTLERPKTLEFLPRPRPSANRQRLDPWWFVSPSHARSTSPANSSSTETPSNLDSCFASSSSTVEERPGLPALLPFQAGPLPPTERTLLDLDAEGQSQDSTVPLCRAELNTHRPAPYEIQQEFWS
# Source text: as §2, §3
compound,measurement,setting,value
CS(=O)(=O)c1cccc(-c2cnc3[nH]cc(C(O)c4c(F)ccc(F)c4F)c3c2)c1 (centres unmarked) [Compound P-0020],IC50,Irak4,≤ 10 µM
"CCCS(=O)(=O)Nc1ccc(F)c(C(=O)c2c[nH]c3ncc(OC)cc23)c1F [Compound P-0806, Propane-1-sulfonic acid [2,4-difluoro-3-(5-methoxy-1H-pyrrolo[2,3-b]pyridine-3-carbonyl)-phenyl]-amide]",IC50,TrkA,≤ 10 µM
same,IC50,EphB4,≤ 10 µM
"O=C(Nc1ccc(Cc2c[nH]c3ncccc23)cc1)Nc1cccc(C(F)(F)F)c1 [Compound P-0262, 1-[4-(1H-Pyrrolo[2,3-b]pyridin-3-ylmethyl)-phenyl]-3-(3-trifluoromethyl-phenyl)-urea]",IC50,PDGFRB,≤ 10 µM
O=C(O)/C=C/c1cccc(-c2cnc3[nH]cc(C(=O)c4cc(O)ccc4F)c3c2)c1 [Compound P-0010],IC50,p38,≤ 10 µM
"COc1cc(OC)cc(C(=O)c2c[nH]c3ncc(-c4cccc(NS(C)(=O)=O)c4)cc23)c1 [Compound P-1426, N-{3-[3-(3,5-Dimethoxy-benzoyl)-1H-pyrrolo[2,3-b]pyridin-5-yl]-phenyl}-methanesulfonamide]",IC50,TrkA,≤ 10 µM
same,IC50,MLK1,≤ 10 µM
"CCCS(=O)(=O)Nc1ccc(F)c(C(=O)c2c[nH]c3ncc(-c4cccnc4)cc23)c1F [Compound P-0088, Propane-1-sulfonic acid [2,4-difluoro-3-(5-pyridin-3-yl-1H-pyrrolo[2,3-b]pyridine-3-carbonyl)-phenyl]-amide]",IC50,PDGFRB,≤ 10 µM
Nc1cccc(-c2cnc3[nH]cc(C(=O)c4cc(O)ccc4F)c3c2)c1 [Compound P-0002],IC50,Irak4,≤ 10 µM
"COc1cccc(C(=O)c2c[nH]c3ncc(-c4cccc(NC(C)=O)c4)cc23)c1F [Compound P-1336, N-{3-[3-(2-Fluoro-3-methoxy-benzoyl)-1H-pyrrolo[2,3-b]pyridin-5-yl]-phenyl}-acetamide]",IC50,EphB4,≤ 10 µM
same,IC50,MLK1,≤ 10 µM

# Reference: US8415469B2, “Compounds and methods for kinase modulation, and indications therefor” (Plexxikon Inc., priority 2005, dated 2013)
